Laboratory results as given in patent US20130178536A1, “SUBSTITUTED CIS- AND TRANS-STILBENES AS THERAPEUTIC AGENTS” (STC.UNM, priority 2006, published 2013).

Key:
Type in all cases: in vivo, mouse
[1] = test system: Aβ plaques; experiment: Areal density of Aβ plaques in brains of AD transgenic mice (Thioflavin-S histology); conditions: for Plaque areal density: 100 ppm in diet, 1 year, mean±S.E.M., p<0.001, untreated 79.8±2.4; for Decrease in plaque areal density: vs untreated transgenic mice
Source text: (§1) B6C3 transgenics (Jackson Laboratory) were used. These double transgenic mice express a chimeric mouse/human amyloid precursor protein (Mo/HuAPP695swe) and a mutant human presenilin 1 (PS1-dE9) both directed to CNS neurons. Both mutations are associated with early-onset Alzheimer's disease. The “humanized” Mo/HuAPP695swe transgene allows the mice to secrete a human Ab peptide. The included Swedish mutations (K595N/M596L) elevate the amount of Ab produced from the transgene by favoring processing through the beta-secretase pathway. Transgenic mice develop beta-amyloid deposits in brain by six to seven months of age. These animals also display a slight alteration in their tail phenotype that is believed to be due to the mixed genetic background of the strain and is not related to transgene expression. These mice are useful in studies of neurological disorders of the brain, specifically Alzheimer's disease, amyloid plaque formation.
(§2) Female B6C3 transgenics were used. Animals were housed 5/cage and fed ad libitum. Groups included controls, RV groups, compound 1 groups and compound 2 groups. Each group was comprised of 15 animals. Diets contained standard dyes to provide different colors to each diet to avoid confusion during the 12 months feeding.
(§3) Transgenic mice carrying mutated APP and presenilin-1 were fed this diet. It was observed early on that compound 2a (4cc) was toxic. Therefore, it was discontinued in the study. […] Twenty four hrs before sacrifice, SPIONs were injected via the tail vein. […] The MRI conspicuity of the plaques increased from a Z-score (signal to noise ratio) of 4.6±0.6 to 8.0±0.1 when the plaque Z-score was compared in control AD mice with AD mice treated with nanoparticles. The number of MRI-visible plaques per brain increased from 355±39 in the control AD mice, to 668±52 in the SPION treated mice.
Paraffin embedded brain sections were rehydrated by progressively immersing them in Hemo-De, 95% EtOH, 70% EtOH and finally 0.1M PBS. […] Images were taken with a Zeiss Axioskop 2 equipped with a Zeiss AxioCam and a Prior Lumen 200 fluorescence lamp (Cancer Center Fluorescence Microscopy Facility, University of New Mexico, Albuquerque, N. Mex., USA, http://hsc.unm.edu/crtc/microscopy/). […]
(§4) Plaque number and area were measured on the CCD images of the IHC brain sections with the aid of ImageJ software (NIH) by thresholding and conversion of the images to binary images. The radial sizes of the plaques were measured using ImageJ on Thioflavin-S stained fluorescence micrographs of brain sections. The radial distributions of activated microglia were measured on spatially calibrated fluorescence micrographs of Iba-1 stained brain sections using the center of the plaque as the local point of reference and the center of the DAPI-stained microglial nucleus as the endpoint. […]

[2] = test system: activated microglia; experiment: Activated microglia density and radial distribution in brains of AD transgenic mice (Iba-1 staining); conditions: for Areal density of activated microglia: 100 ppm in diet, 1 year, mean±S.E.M., p<0.001, untreated 86.1±2.8; for Decrease in areal density of activated microglia: vs untreated transgenic mice
Source text: as §1, §2, §3
Paraffin embedded brain sections were rehydrated by progressively immersing them in Hemo-De, 95% EtOH, 70% EtOH and finally 0.1M PBS. Antigens were retrieved by placing the slides in 6.0 pH 0.01 M sodium citrate buffer with heating to 90° C. for 20 minutes. After cooling to r.t., the slides were stained with Thioflavin-S as above. After rehydrating with 0.1M PBS for 5 minutes, the slides were blocked with 0.1M PBS containing 6% normal donkey serum for 45 minutes and then incubated overnight with rabbit anti-Iba-1, diluted 1:400, at 4° C. in a humidity chamber. The next day the slides were washed three times with 0.1M PBS. The secondary antibody, rhodamine-conjugated donkey anti-rabbit IgG, was diluted with 0.5% BSA in 0.1M PBS to 1:200 under light-restricted conditions. 100 μl of this secondary antibody solution was applied to each brain slice for 2 h in a light-tight container at r.t. The slides were then rinsed three times with 0.1M PBS and twice with dd water. Vectashield with DAPI was applied and the slides were cover-slipped and sealed for imaging. Images were taken with a Zeiss Axioskop 2 equipped with a Zeiss AxioCam and a Prior Lumen 200 fluorescence lamp (Cancer Center Fluorescence Microscopy Facility, University of New Mexico, Albuquerque, N. Mex., USA, http://hsc.unm.edu/crtc/microscopy/). Images were processed using Slidebook (Denver, Colo.). Confocal images were taken and processed using Zen (Carl Zeiss MicroImaging GmbH, Germany).
as §4

[3] = test system: Aβ plaques; experiment: MRI-detected plaques in brains of AD transgenic mice with anti-APP SPIONs; conditions: for Decline in number of plaques per brain: 100 ppm in diet, 1 year, MRI
Source text: as §1, §2
Transgenic mice carrying mutated APP and presenilin-1 were fed this diet. It was observed early on that compound 2a (4cc) was toxic. Therefore, it was discontinued in the study. […] Twenty four hrs before sacrifice, SPIONs were injected via the tail vein. […]
Pilot MRI studies of this line of transgenic mice were carried out at three magnetic field strengths: at 4.7 Tesla, at the UNM BRaIN Imaging Center, and at 9.4 and 16.4 Tesla at the Center for Magnetic Resonance Research at the University of Minnesota. […] One hundred ninety two MRI slices were analyzed by counting plaques in each slice, and by computing the statistical significance of the intensity in the hypointense plaque core versus the noise level in the surrounding tissue. […]

Row | Structure (SMILES) | Plaque areal density [1] [plaques/mm^2] | Decrease in plaque areal density [1] [%] | Proximal halo of microglia around plaques [2] [µm] | Areal density of activated microglia [2] [microglia/mm^2] | Decrease in areal density of activated microglia [2] [%] | Decline in number of plaques per brain [3] | Total number of MRI-determined plaques ([3]; fed over entire life span, anti-APP SPIONs for 24 hours, SPION control n=668)
1 | COc1ccc(/C=C/c2ccccc2F)cc1 [1a (LD-55)] | 55.4±4.8 | 31 | 24 | 44.2±3.2 | 49 | 3-6 fold | 209
2 | Oc1ccc(/C=C/c2cc(O)cc(O)c2)cc1 [Resveratrol, reference compound] | 51.8±2.4 | 35 | 17 | 34.7±1.8 | 60 | 3-6 fold | 
